This note sets out measurements from US8241903B2, “Catecholamine receptor modulation” (Yeda Research and Development Co., Ltd., priority 2006, dated 2012).

Assay [1] concerns cord blood CD34+ cells. Description: Progenitor colony forming assay (CFU) in semi solid cultures. The format is cell-based, human. Conditions: for colony (CFU-C) formation in the presence of GM-CSF: IL-3 plus GM-CSF 5 ng/ml, scored day 14; for colony (CFU-C) formation in the presence of GM-CSF / colony formation, culture not supplemented with myeloid cytokines: SKF 1 μM or 7-OH-DPAT 100 nM; for colony formation, culture not supplemented with myeloid cytokines: no GM-CSF or G-CSF; for clonogenic capacity of human cord blood CD34+ cells: epinephrine 10 nM, norepinephrine 1 and 10 nM added to the methyl cellulose. How it is done:
(vii) Progenitor colony forming assay (CFU). In order to detect the levels of human progenitors, semisolid cultures were carried out as previously described (Peled et al. 1999). In brief, CD34^+ cells (1×10^3 cells/ml) were plated in 0.9% methylcellulose (Sigma), 30% FCS, 5×10^−5M 2ME, 50 ng/ml SCF, 5 ng/ml IL-3, 5 ng/ml GM-CSF (R&D), and 2 u/ml Erythropoietin (Orto Bio Tech, Don Mills, Canada) together with the dopamine agonists/antagonist. In some experiments the cells were pre-incubated for 4 days with the agonists/antagonist prior to plating in the semisolid culture. The cultures were incubated at 37° C. in a humidified atmosphere containing 5% CO2 and scored 14 days later for myeloid or erythroid colonies by morphologic criteria. In experiments where the level of in vivo engraftment by primitive human cells was determined, the semisolid media contained 15% human plasma and 15% FCS.
GM-CSF and G-CSF are known for their role in myeloid differentiation and in stem cell regulation. It is common practice to add these cytokines to progenitor colony forming assay (CFU) in order to facilitate detection of human progenitors. […] We therefore tested whether up regulation of dopamine receptor levels affects progenitor development in vitro. For this purpose cord blood CD34^+ cells were seeded in semi solid cultures (1×10^3 cells/ml in 1 ml) supplemented with the cytokines Epo (2 u/ml; Orto Bio Tech, Don Mills, Canada.), SCF (50 ng/ml; R&D) and IL-3 (5 ng/ml R&D) and with GM-CSF (5 ng/ml; R&D) or G-CSF (100 ng/ml; Roche) in order to up regulate dopamine receptor levels. To evaluate the effect of increased dopamine receptor activity, the semi solid cultures were supplemented with dopamine agonist SKF (1 μM) or 7-OH-DPAT (100 nM) or with medium as a control.
Next, the effect of the adrenergic neurotransmitters epinephrine (10 nM) and norepinephrine (1 and 10 nM) on proliferation of human CD34+ cells was assessed. The experimental conditions were similar to those conducted with the dopamine agonists. For colony assay, epinephrine and norepinephrine were added to the methyl cellulose. […] For engraftment assay, cells were incubated for 2 days in RPMI supplemented with GM-CSF 5 ng/ml.

In assay [2] the test system is human CD34+ cells. Description: Engraftment of ex-vivo treated human CD34+ cells in bone marrow of irradiated NOD/SCID mice. Conditions: for engraftment in the murine BM compared to control cells: MPB CD34+ cells incubated 2-4 days with 1 μM SKF or 100 ng/ml 7-OH-DPAT before injection, human CD45 in BM 5 weeks post injection; for engraftment of human CD34+ cells in NOD/SCID mice: cord blood CD34+ cells incubated 2 days with GM-CSF 5 ng/ml with or without the neurotransmitter prior to injection.
Experimental: (ii) Mice. […] Eight-ten week old mice were sublethally irradiated (375 cGy, from a 60 Co source) and transplanted with human cells as indicated (2×10^5 cells/mouse) 24 hours post irradiation.
(iii) Cell transplantation. Cells were injected into the tail vein of NOD/SCID in 0.5 ml of RPMI supplemented with 10% FCS.
(iv) Assessment of cell engraftment. Recipient mice were irradiated with a sublethal (350 cGy) dose from a Cesium source 24 hours prior to injection of cells. MPB or CB CD34^+ cells (2-3×10^5/mouse) were treated with SKF or 7-OH-DPAT for 2-4 days and injected i.v. into NOD/SCID mice. Mice were sacrificed 5-6 weeks post transplantation of human cells for assessing human cell engraftment assessment. BM (femur, tibia and pelvis bones flushed with a syringe), spleen, and peripheral blood cells were harvested and resuspended into single cell suspensions. WBCs were counted and in some experiments MNCs were isolated from samples by standard separation on Ficol-Hypaque (Pharmacia Biotech). Human cell engraftment was assayed by flow cytometry (FACSCalibur, BD). Cells were triple-stained with CD45-FITC, CD38-PE and CD34-APC (Becton Dickinson) antibodies. Human plasma and mouse IgG were used to block Fc receptors. Human leukocytes were gated according to their expression of the pan-leukocyte marker CD45, and amongst this population the percentage of CD34^+/CD38^−/low primitive cells was determined.
To assess the effect of dopamine receptor on engraftment of stem cells, mobilized peripheral blood (MPB) enriched human CD34^+ cells treated ex-vivo with the dopamine agonists SKF or 7-OH-DPAT were transplanted in NOD/SCID mice and engraftment of human cell in the murine BM was determined. Briefly, 1-3×10^5 MPB CD34^+ cells were incubated for 2-4 days at 37° C. in RPMI supplemented with 10% FCS, penicillin streptomycin and L-Glutamine and treated with the dopamine receptor agonists (1 μM) SKF or (100 ng/ml) 7-OH-DPAT or were left untreated. After the incubation, the cells were injected in irradiated NOD/SCID mice. The mice were sacrificed 5 weeks post injection, BM was extracted and the BM cells were labeled for the human CD45 marker.
The experimental conditions were similar to those conducted with the dopamine agonists. […] For engraftment assay, cells were incubated for 2 days in RPMI supplemented with GM-CSF 5 ng/ml.

The test system of assay [3] is cord blood CD34+ cells. Description: Polarization of CB CD34+ cells upon adhesion to hyaluronic acid. The format is cell-based, human. The note with it: CB CD34+ cells on HA-coated cover slips, 2 hours at 37° C.
Experimental: Enriched CB CD34^+ cells (1×10^5 to 2×10^5 cells per well) were plated on HA-coated cover slips for 2 hours at 37° C., either untreated or treated with SKF or 7-OH-DPAT. Samples were processed for microscopic observation as described (Goichberg et al., 2001). In brief, the adherent cells were fixed with 3% paraformaldehyde (Merck, Darmstadt, Germany) and, if indicated, permeabilized in 0.5% Triton X-100 (Sigma-Aldrich). Samples were indirectly immunolabeled at room temperature in a humidified chamber with using purified polyclonal rabbit anti human Dopamine D5 antibodies (Calbiochem, Nottingham, UK) (MCAP89; Serotec). The secondary antibodies used were Goat anti rabbit Alexa 488 conjugated (Molecular Probes, Eugene Oreg.). Phalloidin—TRITC used to detect polymerized actin, was purchased from Sigma-Aldrich. Following labeling, cells were mounted in Elvanol (Mowiol 4-88, Hoechst, Frankfurt, Germany). Immunofluorescence images were acquired using scientific-grade CCD camera and processed by the Delta Vision system using Resolve 3D software (Applied Precision, Issaquah, Wash.).
We assessed changes in morphology of cord blood CD34^+ cells upon adhesion to hyaluronic in the presence or the absence of the dopamine agonists SFK or 7-OH-DPAT.
Assay [4] has as its system murine bone marrow mononuclear cells. Description: Spontaneous migration of bone marrow mononuclear cells from treated mice. Format: in vivo. Conditions: cells from mice treated with G-CSF plus agonist compared to G-CSF alone.
Another assay concerns BM cells. Description: Bone marrow cellularity (WBC) after 5 daily i.p. injections in mice. Format: in vivo. The note with it: WBC on day 5, 4 hrs after last injection. The method, then:
For this purpose, mice were injected with 5 daily i.p injections of the dopamine agonist 7-OH-DPAT (1.5 mg/kg) or antagonist flupenthixol 5 (3 mg/kg) or remained untreated and the bone marrow cell mass was determined. On day 5, 4 hrs after last injection, mice were sacrificed, BM cells were flushed from BM (with a syringe), and White Blood Count (WBC) was determined.

Assay [5] concerns human CD34+ cells. The method, then:
(viii) Chemotaxis assays. Chemotaxis experiments were assayed using transwells (6.5 mm diameter, 5 μm pore; Corning Inc., Corning, N.Y.) as previously described (1). […] Migrating cells were counted using FACSCalibur (Becton Dickinson).
We tested the effect of dopamine (1 nM-1 uM) on in vitro migration potential of immature human CD34^+ cells (50,000-100,000 cells in 100 ul). […] Since dopamine is highly oxidative, its agonists were used, particularly in treatments requiring longer incubation periods (FIG. 6D).

Assay [6] concerns dopamine receptors type 3 and 5 on the surface of CD34+ enriched cells. Kind of assay: Flow cytometry of dopamine receptor expression on CD34+ cells from BM of G-CSF treated or untreated donors. Format: in vivo, human. The note with it: CD34+ cells from BM of G-CSF treated healthy donors vs BM of untreated healthy donors. From the text:
(i) Human cells and reagents. Human cord blood (CB), adult G-CSF mobilized peripheral blood (MPBL) and BM from normal or G-CSF treated donors mononuclear cells were obtained after informed consent in accordance with procedures approved by the human ethics committee of the Weizmann Institute of Science. The cell surface protein CD34 is frequently used as a marker for positive selection of human hematopoietic stem/progenitor cells in research and in transplantation. CD34^+ cell enrichment was performed using magnetic bead separation as previously described (Spiegel A et al Blood 2004; 2900-7). Cells were cultured in RPMI 1640 medium supplemented with 10% heat-inactivated FCS, antibiotics and glutamine.
Human CB cells were obtained from full-term deliveries after informed consent. Blood samples were diluted 1:1 in PBS. […]
(vi) Flow cytometry analysis. […] Human leukocytes were gated according to their expression of the pan-leukocyte marker CD45, and amongst this population the percentage of CD34+/CD38−/low primitive cells was determined. […] After staining, cells were washed in FACS buffer and analyzed by fluorescence-activated cell sorting (FACSCalibur and CellQuest software, Becton Dickinson).
Expression of dopamine receptors type 3 and 5 was evaluated on the surface of CD34^+ enriched cells that were obtained from different sources. […]
A general note: In flow cytometry, cells or beads pass a laser one at a time.

Assay [7] has as its system dopamine receptor 3 and 5 on human CD34+/CD38-/low cells. Kind of assay: Dopamine receptor expression on human cells from BM of G-CSF treated chimeric NOD/SCID mice. The format is in vivo, human cells in NOD/SCID mice. Conditions: 5 daily s.c. injections of G-CSF. How it is done: Mobilization in NOD/SCID mice engrafted with human cells was performed as follows: mice received a daily subcutaneous injection of G-CSF (Filgrastim, […] in […] 0.9% NaCl, 5% fetal calf serum (FCS), pH 4.55) for 5 consecutive days and were sacrificed 4 hrs after the last injection. Peripheral blood from mice asphyxied with dry ice was collected by cardiac aspiration in heparinized tubes. Number of WBC in the peripheral blood was determined.
(vi) Flow cytometry analysis. Phenotypes of human and murine cells were examined by immunostaining, followed by flow cytometry analysis on FACSCalibur (Becton Dickinson, San Jose, Calif.) with CellQuest software. Single cell suspension were prepared in PBS containing 0.01% sodium azide and 1% FCS. Human plasma and mouse IgG were used to block human and murine Fc-receptors. Isotype-matched control antibodies were used to exclude false positive cells. Staining was performed in 4° C. for 30 minutes. […] Human leukocytes were gated according to their expression of the pan-leukocyte marker CD45, and amongst this population the percentage of CD34+/CD38−/low primitive cells was determined. […] After staining, cells were washed in FACS buffer and analyzed by fluorescence-activated cell sorting (FACSCalibur and CellQuest software, Becton Dickinson). […]

Assay [8] concerns beta-2 adrenergic receptor on CD34+ cells. Kind of assay: Flow cytometry of beta-2 adrenergic receptor on CD34+ cells. Conditions: in vivo G-CSF stimulated (mobilized) peripheral blood CD34+ cells. Details: species or system human. The text has this:
We carried out experiments in order to test whether CD34+ cells are regulated by additional catecholamines neurotransmitters.

Consider `Cl.Oc1cc2c(cc1O)C(c1ccccc1)CNCC2` (single isomer, unassigned; (+)) [SKF, (+)-1-phenyl-2,3,4,5-tetrahydro(1H)-3-benzazepine-7,8-diol hydrochloride], for which the “colony (CFU-C) formation in the presence of GM-CSF” value in the assay on cord blood CD34+ cells [1] (CB CD34+ cells, Epo, SCF) is listed as “augmented”. In addition, the “colony formation, culture not supplemented with myeloid cytokines” value in the assay on cord blood CD34+ cells [1] (CB CD34+ cells) was “No increase”. The “engraftment in the murine BM compared to control cells” value with human CD34+ cells [2] was determined as 2 fold. Also, the “percent of cells that exhibited polarized morphology compared to control” value with cord blood CD34+ cells [3] is reported as “more than doubled”. The “spontaneous migration of murine bone marrow mononuclear cells” value in assay [4] is given as “higher spontaneous migration”.
In the case of `CCCN(CCC)C1CCc2ccc(O)cc2C1` (stereo not drawn) [7-OH-DPAT, 7-hydroxy-2-dipropylaminotetralin], the “colony formation in the presence of G-CSF” value in the assay with cord blood CD34+ cells [1] (CB CD34+ cells, Epo, SCF, IL-3 plus G-CSF 100 ng/ml, 7-OH-DPAT 100 nM) is “the largest increase”. Also, in the assay on cord blood CD34+ cells [1] (CB CD34+ cells, Epo, SCF), the “colony (CFU-C) formation in the presence of GM-CSF” value is “increased colony formation”. Further, the “colony formation, culture not supplemented with myeloid cytokines” value with cord blood CD34+ cells [1] (CB CD34+ cells) is reported as “No increase”. Moreover, in the assay on human CD34+ cells [2], the “engraftment in the murine BM compared to control cells” value is on record as 2 fold. In addition, in the assay with BM cells (7-OH-DPAT 1.5 mg/kg), the “increase in BM cellularity” value was 50%. In addition, the “percent of cells that exhibited polarized morphology compared to control” value with cord blood CD34+ cells [3] is listed as “more than doubled”. For the same molecule, the “spontaneous migration of murine bone marrow mononuclear cells” value in [4] was “higher spontaneous migration”.
In the case of `CNC[C@H](O)c1ccc(O)c(O)c1` [epinephrine], the “clonogenic capacity of human cord blood CD34+ cells” value in the assay on cord blood CD34+ cells [1] is on record as “increase the clonogenic capacity”. Further, the “engraftment of human CD34+ cells in NOD/SCID mice” value in the assay on human CD34+ cells [2] was “enhance engraftment”.
For the molecule `OCCN1CCN(CCC=C2c3ccccc3Sc3ccc(C(F)(F)F)cc32)CC1` [flupenthixol, 2-[4-[3-[2-(trifluoromethyl)thioxanthen-9-ylidene]propyl]piperazin-1-yl]ethanol], the “decrease in BM cellularity” value with BM cells (flupenthixol 3 mg/kg) was 25%.
Turning to `CN1CCN(C2=Nc3cc(Cl)ccc3Nc3ccccc32)CC1` [clozapine], the decrease in engraftment in the assay with human CD34+ cells [2] (MPB CD34+ cells pretreated with antagonist prior to injection, 5 weeks) turned out to be 50%.
As to `NC[C@H](O)c1ccc(O)c(O)c1` [norepinephrine], the “clonogenic capacity of human cord blood CD34+ cells” value in the assay with cord blood CD34+ cells [1] is reported as “increase the clonogenic capacity”. In addition, the “engraftment of human CD34+ cells in NOD/SCID mice” value in the assay on human CD34+ cells [2] is given as “enhance engraftment”. Also, the “migration of CD34+ cells towards norepinephrine in the lower well” value in the assay on human CD34+ cells [5] (CB (GM-CSF pretreated) or MPB CD34+ cells, 1 or 10 nM norepinephrine) is “increased migration”.
Consider `NCCc1ccc(O)c(O)c1` [dopamine], for which the “migration of cord blood CD34+ enriched cells towards dopamine in the lower chamber” value in the assay with human CD34+ cells [5] (cells pre-treated with GM-CSF, dopamine 10 nM (tested 1 nM-1 uM)) is given as “significantly increased”. For the same molecule, in the assay with human CD34+ cells [5] (no GM-CSF pre-treatment, data not shown), the “migration of cord blood CD34+ cells towards dopamine, cells not pre-treated with GM-CSF” value is reported as “not detected”.

B1: G-CSF: myeloid cytokine, granulocyte colony-stimulating factor (Filgrastim, Roche) (protein, chains of the INN, looked up)
chain: MTPLGPASSLPQSFLLKCLEQVRKIQGDGAALQEKLCATYKLCHPEELVLLGHSLGIPWAPLSSCPSQALQLAGCLSQLHSGLFLYQGLLQALEGISPELGPTLDTLQLDVADFATTIWQQMEELGMAPALQPTQGAMPAFASAFQRRAGGVLVASHLQSFLEVSYRVLRHLAQP
With B1, the “expression of dopamine receptor on the surface of enriched CD34+ cells, higher than untreated donors” value in [6] is listed as 2-4 folds. In addition, the “level of dopamine receptor expression in the CD34+/CD38-/low cell population” value in [7] is “increase”. Further, the “levels of β2-adrenergic receptor on CD34+ cells” value in assay [8] is “higher levels”.
